The text below walks through data of ChEMBL document CHEMBL5113443, “Design, synthesis and properties of peptide inhibitors based on BRCA1856-871” (Bioorg Med Chem Lett, 2022).

Data set [1] has as its target T1, DNA repair protein RAD51 homolog 1 (Homo sapiens) (UniProt Q06609).
T1 sequence (whole entry): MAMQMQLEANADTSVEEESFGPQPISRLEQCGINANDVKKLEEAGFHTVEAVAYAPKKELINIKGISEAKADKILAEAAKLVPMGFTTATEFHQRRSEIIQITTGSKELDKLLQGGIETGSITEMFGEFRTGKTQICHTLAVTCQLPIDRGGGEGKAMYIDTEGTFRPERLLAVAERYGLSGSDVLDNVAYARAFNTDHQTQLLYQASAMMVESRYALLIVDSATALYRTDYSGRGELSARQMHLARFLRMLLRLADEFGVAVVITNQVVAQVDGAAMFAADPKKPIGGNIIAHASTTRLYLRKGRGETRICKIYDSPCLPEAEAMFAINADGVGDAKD
The data set can be described thus: Binding affinity to RAD51 (158 to 180 residues) (unknown origin) assessed as alpha-helical content at 15 uM by circular dichroism spectroscopy (reference value: 26.9%). For orientation: CD spectra are sensitive to the conformation of chiral molecules.

Data set [2] deals with T1, DNA repair protein RAD51 homolog 1 (Homo sapiens). Briefly: Binding affinity to RAD51 (158 to 180 residues) (unknown origin) assessed as quenching rate constant by fluorescence spectroscopy.
For data set [3] the target is unchanged. The data set can be described thus: Binding affinity to RAD51 (158 to 180 residues) (unknown origin) assessed as binding constant by fluorescence spectroscopy.
The target is the same in data set [4]. Briefly: Binding affinity to RAD51 (158 to 180 residues) (unknown origin) assessed as reduction in fluorescence intensity by fluorescence spectroscopy. To be noted: dose 6-30 µM, DDE = dose-dependent effect.
For data set [5] the target is unchanged. Briefly: Binding affinity to RAD51 (158 to 180 residues) (unknown origin) assessed as beta-sheet content at 15 uM by circular dichroism spectroscopy (reference value: 17.7%).
Data set [6] has the same target. Briefly: Binding affinity to RAD51 (158 to 180 residues) (unknown origin) assessed as beta-turn content at 15 uM by circular dichroism spectroscopy (reference value: 16.2%).
Data set [7] shares this target. Briefly: Binding affinity to RAD51 (158 to 180 residues) (unknown origin) assessed as random coil content at 15 uM by circular dichroism spectroscopy (reference value: 39.2%).
Another data set deals with HEK293. Briefly: Cytotoxicity against HEK293 cells assessed as reduction in cell viability at 200 uM. The class given is toxicity, cell-based. To be noted: human, hek293, 200 µM.
For another data set, the system named is MCF7. Briefly: Cytotoxicity against human MCF7 cells assessed as cell viability at 100 uM relative to control. Type of data set: functional. As to conditions: read-out: Activity.

Where a SMILES comes first, the peptide text is derived from it. The star is where a group is joined. Nicotinoyl(6-CF3) = O=C(c1ccc(C(F)(F)F)nc1)*; X1 = O=C(c1cncc(C(F)(F)F)c1)*; X5 = O=C(c1ccc[n+]([O-])c1)*; Nicotinoyl = O=C(c1cccnc1)*; X2 = O=C(c1cccnc1C(F)(F)F)*; X3 = O=C(c1cccnc1Br)*; X4 = Cc1ccncc1C(=O)*; X6 = O=C(c1cccnc1S)*

On to `CC(C)C[C@H](NC(=O)[C@@H](N)Cc1ccc(O)cc1)C(=O)N[C@@H](CCC(N)=O)C(=O)N[C@@H](CC(N)=O)C(=O)N[C@H](C(=O)N[C@@H](Cc1ccccc1)C(=O)N[C@@H](CCCCN)C(=O)N[C@H](C(=O)N[C@@H](CO)C(=O)N[C@@H](CCCCN)C(=O)N[C@@H](CCCNC(=N)N)C(=O)N[C@@H](CCC(N)=O)C(=O)N[C@@H](CO)C(=O)N[C@@H](Cc1ccccc1)C(=O)N[C@@H](C)C(=O)N1CCC[C@H]1C(=O)O)C(C)C)[C@@H](C)O` (H-YLQNTFKVSKRQSFAP-OH), for which the Activity is 37.1% in data set [1]; “Dde” in [4]; 18.5% in [5]; 26.4% in data set [6]; 18% in data set [7]; “Non-Toxic” in the data set on HEK293. Moreover, in data set [2], the Kq was 1.13 10^12/M. For the same compound, the Binding constant in data set [3] is 0.33 10^4/M. For the same compound, the viability at 100 µM with MCF7 is 90.6%.
With `CC(C)C[C@H](NC(=O)[C@H](Cc1ccc(O)cc1)NC(=O)c1cccnc1)C(=O)N[C@@H](CCC(N)=O)C(=O)N[C@@H](CC(N)=O)C(=O)N[C@H](C(=O)N[C@@H](Cc1ccccc1)C(=O)N[C@@H](CCCCN)C(=O)N[C@H](C(=O)N[C@@H](CO)C(=O)N[C@@H](CCCCN)C(=O)N[C@@H](CCCNC(=N)N)C(=O)N[C@@H](CCC(N)=O)C(=O)N[C@@H](CO)C(=O)N[C@@H](Cc1ccccc1)C(=O)N[C@@H](C)C(=O)N1CCC[C@H]1C(N)=O)C(C)C)[C@@H](C)O` (Nicotinoyl-YLQNTFKVSKRQSFAP-NH2), the Activity was 43.4% in data set [1]; 13.9% in [5]; 20.1% in data set [6]; 22.6% in [7]; “Non-Toxic” in the data set with HEK293. Also, the Kq in [2] is 0.96 10^12/M. Moreover, the Binding constant in data set [3] was 1.26 10^4/M. Besides, the viability at 100 µM in the data set with MCF7 turned out to be 80.9%.
On to `CC(C)C[C@H](NC(=O)[C@H](Cc1ccc(O)cc1)NC(=O)c1cncc(C(F)(F)F)c1)C(=O)N[C@@H](CCC(N)=O)C(=O)N[C@@H](CC(N)=O)C(=O)N[C@H](C(=O)N[C@@H](Cc1ccccc1)C(=O)N[C@@H](CCCCN)C(=O)N[C@H](C(=O)N[C@@H](CO)C(=O)N[C@@H](CCCCN)C(=O)N[C@@H](CCCNC(=N)N)C(=O)N[C@@H](CCC(N)=O)C(=O)N[C@@H](CO)C(=O)N[C@@H](Cc1ccccc1)C(=O)N[C@@H](C)C(=O)N1CCC[C@H]1C(N)=O)C(C)C)[C@@H](C)O` (X1-YLQNTFKVSKRQSFAP-NH2), for which the Activity in data set [1] was 46.7%; in [5], 13.4%; in data set [6] it was 16.5%; in data set [7] it was 23.4%; in the data set with HEK293, “Non-Toxic”. In addition, the Kq in [2] was 1.32 10^12/M. Moreover, the Binding constant in [3] is 1.56 10^4/M. Besides, the viability at 100 µM with MCF7 worked out at 71%.
Take `CC(C)C[C@H](NC(=O)[C@H](Cc1ccc(O)cc1)NC(=O)c1cccnc1C(F)(F)F)C(=O)N[C@@H](CCC(N)=O)C(=O)N[C@@H](CC(N)=O)C(=O)N[C@H](C(=O)N[C@@H](Cc1ccccc1)C(=O)N[C@@H](CCCCN)C(=O)N[C@H](C(=O)N[C@@H](CO)C(=O)N[C@@H](CCCCN)C(=O)N[C@@H](CCCNC(=N)N)C(=O)N[C@@H](CCC(N)=O)C(=O)N[C@@H](CO)C(=O)N[C@@H](Cc1ccccc1)C(=O)N[C@@H](C)C(=O)N1CCC[C@H]1C(N)=O)C(C)C)[C@@H](C)O` (X2-YLQNTFKVSKRQSFAP-NH2): the Activity in data set [1] is 51.3%; in [5], 26.3%; in data set [6], 11.6%; in [7] it was 10.8%; with HEK293 it was “Non-Toxic”. Moreover, the Kq in data set [2] is 0.61 10^12/M. Moreover, the Binding constant in data set [3] was 4.07 10^4/M. In addition, the viability at 100 µM in the data set on MCF7 came to 81.5%.
Turning to `CC(C)C[C@H](NC(=O)[C@H](Cc1ccc(O)cc1)NC(=O)c1cccnc1Br)C(=O)N[C@@H](CCC(N)=O)C(=O)N[C@@H](CC(N)=O)C(=O)N[C@H](C(=O)N[C@@H](Cc1ccccc1)C(=O)N[C@@H](CCCCN)C(=O)N[C@H](C(=O)N[C@@H](CO)C(=O)N[C@@H](CCCCN)C(=O)N[C@@H](CCCNC(=N)N)C(=O)N[C@@H](CCC(N)=O)C(=O)N[C@@H](CO)C(=O)N[C@@H](Cc1ccccc1)C(=O)N[C@@H](C)C(=O)N1CCC[C@H]1C(N)=O)C(C)C)[C@@H](C)O` (X3-YLQNTFKVSKRQSFAP-NH2), the Activity in data set [1] was 37.7%; in data set [5], 13.1%; in data set [6], 21.6%; in data set [7], 27.6%. Besides, in [2], the Kq is 1.7 10^12/M. Also, in [3], the Binding constant was 0.18 10^4/M.
As to `Cc1ccncc1C(=O)N[C@@H](Cc1ccc(O)cc1)C(=O)N[C@@H](CC(C)C)C(=O)N[C@@H](CCC(N)=O)C(=O)N[C@@H](CC(N)=O)C(=O)N[C@H](C(=O)N[C@@H](Cc1ccccc1)C(=O)N[C@@H](CCCCN)C(=O)N[C@H](C(=O)N[C@@H](CO)C(=O)N[C@@H](CCCCN)C(=O)N[C@@H](CCCNC(=N)N)C(=O)N[C@@H](CCC(N)=O)C(=O)N[C@@H](CO)C(=O)N[C@@H](Cc1ccccc1)C(=O)N[C@@H](C)C(=O)N1CCC[C@H]1C(N)=O)C(C)C)[C@@H](C)O` (X4-YLQNTFKVSKRQSFAP-NH2), the Activity was 37.9% in [1], 11.3% in data set [5], 18.1% in data set [6] and 32.7% in [7]. In addition, the Kq in [2] was 1.77 10^12/M. Further, the Binding constant in [3] is 0.76 10^4/M.
As to `CC(C)C[C@H](NC(=O)[C@H](Cc1ccc(O)cc1)NC(=O)c1ccc[n+]([O-])c1)C(=O)N[C@@H](CCC(N)=O)C(=O)N[C@@H](CC(N)=O)C(=O)N[C@H](C(=O)N[C@@H](Cc1ccccc1)C(=O)N[C@@H](CCCCN)C(=O)N[C@H](C(=O)N[C@@H](CO)C(=O)N[C@@H](CCCCN)C(=O)N[C@@H](CCCNC(=N)N)C(=O)N[C@@H](CCC(N)=O)C(=O)N[C@@H](CO)C(=O)N[C@@H](Cc1ccccc1)C(=O)N[C@@H](C)C(=O)N1CCC[C@H]1C(N)=O)C(C)C)[C@@H](C)O` (X5-YLQNTFKVSKRQSFAP-NH2), the Activity turned out to be 40.6% in data set [1], 13.2% in data set [5], 14% in data set [6] and 32.2% in [7]. In addition, the Kq in [2] is 1.34 10^12/M. Further, the Binding constant in [3] is 0.89 10^4/M.
Take `CC(C)C[C@H](NC(=O)[C@H](Cc1ccc(O)cc1)NC(=O)c1cccnc1S)C(=O)N[C@@H](CCC(N)=O)C(=O)N[C@@H](CC(N)=O)C(=O)N[C@H](C(=O)N[C@@H](Cc1ccccc1)C(=O)N[C@@H](CCCCN)C(=O)N[C@H](C(=O)N[C@@H](CO)C(=O)N[C@@H](CCCCN)C(=O)N[C@@H](CCCNC(=N)N)C(=O)N[C@@H](CCC(N)=O)C(=O)N[C@@H](CO)C(=O)N[C@@H](Cc1ccccc1)C(=O)N[C@@H](C)C(=O)N1CCC[C@H]1C(N)=O)C(C)C)[C@@H](C)O` (X6-YLQNTFKVSKRQSFAP-NH2): the Activity in data set [1] turned out to be 36.2%; in [5], 10.8%; in data set [6] it was 28.8%; in [7], 24.2%. Further, the Kq in data set [2] was 5.85 10^12/M. For the same compound, the Binding constant in [3] was 0.72 10^4/M.
`CC(C)C[C@H](NC(=O)[C@H](Cc1ccc(O)cc1)NC(=O)c1ccc(C(F)(F)F)nc1)C(=O)N[C@@H](CCC(N)=O)C(=O)N[C@@H](CC(N)=O)C(=O)N[C@H](C(=O)N[C@@H](Cc1ccccc1)C(=O)N[C@@H](CCCCN)C(=O)N[C@H](C(=O)N[C@@H](CO)C(=O)N[C@@H](CCCCN)C(=O)N[C@@H](CCCNC(=N)N)C(=O)N[C@@H](CCC(N)=O)C(=O)N[C@@H](CO)C(=O)N[C@@H](Cc1ccccc1)C(=O)N[C@@H](C)C(=O)N1CCC[C@H]1C(N)=O)C(C)C)[C@@H](C)O` ({Nicotinoyl(6-CF3)}-YLQNTFKVSKRQSFAP-NH2): the Activity was 48.3% in [1]; 11.2% in data set [5]; 18.4% in [6]; 22.1% in data set [7]; “Non-Toxic” in the data set on HEK293. Besides, the Kq in data set [2] was 1.24 10^12/M. For the same compound, the Binding constant in [3] is 1.97 10^4/M. In addition, in the data set on MCF7, the viability at 100 µM amounted to 79.1%.
